Assay results as given in US20240217917A1, “PHOTOLYTICALLY DEGRADABLE COMPOUNDS AND METHODS” (The University of Stavanger, priority 2021, published 2024).
Converted amounts (≈) assume the structure as drawn.

Tests used:
[1] = Photolysis of compounds 1-5, 125 W medium pressure mercury vapour lamp, conversion by 1H-NMR; format: physicochemical; details: for stability under irradiation at lower pH: pH values lower than 11
Method: Following the procedure by Wan and Muralidharan (Wan, P.; Muralidharan, S. J. Am. Chem. Soc. 1988, 110 (13), 4336-4345) aminol 1 (compound 1) was photolysed in acetonitrile and water (7:3, v:v) at the appropriate pH using a 125 W medium pressure mercury vapour lamp. Seven experiments were performed from pH 13 to pH 1 with a concentration of around 0.68 mM, and each reaction was irradiated for. 2 hours Following liquid-liquid extraction with DCM, all reaction mixtures were analysed with ^1H-NMR spectroscopy. Initially it was expected that a mechanism similar to the nitrophenethyl alcohols (Scheme 3) would occur and the expected products would therefore be N-methyl-p-nitroaniline, phenylacetaldehyde, 2-(p-nitroaniline)acetaldehyde, and toluene
Because of this, it seems likely that following excitation to the singlet state and intersystem crossing (ISC) to the triplet state, a proton is abstracted and initiates decomposition. Two products were identified from the NMR data; p-nitroaniline and benzaldehyde. This means that there are two carbon atoms in the starting material unaccounted for (Scheme 13). A reasonable hypothesis is that they remain in the aqueous phase during extraction as formaldehyde or glyoxal.

[2] = UV-vis spectra; format: physicochemical; details: ethanol as solvent
Method: As illustrated in the UV-vis spectra, where the nitro group is positioned greatly influences the λmax. With nitro substitution on the aniline these values are around 380 and 400 nm, whereas for the two other compounds a hypsochromic shift is observed all the way down to 248 nm.
UV-vis spectra were obtained on an Agilent 8453 single-beam UV-vis spectrophotometer with a deuterium-discharge lamp for the UV range and a tungsten lamp for the visible wavelength range. Samples were analysed in an Agilent open-top UV quartz cell (10 mm, 3.0 mL) with ethanol as solvent. Wavelengths are reported in nm and molar attenuation coefficients in M^−1cm^−1.

[3] = system: S. Agalactiae; assay: Minimum inhibitory concentration (MIC) screen, OD 600 nm; format: cell-based; set-up: key to Minimum inhibitory concentration, S. Agalactiae: I = inactive, i.e. below the activity threshold; details: screened at 100-1.6 μM; for MIC: Streptococcus agalactiae
Method: (§1) With compounds 6-9 and the crude degradation mixtures in hand, the minimum inhibitory concentration (MIC) was screened against a number of gram-positive and gram-negative bacteria, including E. faecalis, E. coli, P. aeruginosa, S. aureus, S. agalactiae, and S. epidermidis. To determine the activity, optical density (OD) at 600 nm was measured to estimate the concentration of bacteria at concentrations from 1.6 -100 μM. Values below 0.05 are counted as active and indicates inhibition of growth, illustrated by plotting OD against the concentration for compounds 6-9, (FIG. 9). […] Black stapled lines at 0.05 for MIC and 30% for biofilm formation indicate activity threshold values. […] No activity was observed against the gram-negative bacteria (Table 3).

[4] = system: S. Epidermidis; assay: as above; format: cell-based; set-up: key to Minimum inhibitory concentration, S. Epidermidis: I = inactive, i.e. below the activity threshold; details: screened at 100-1.6 μM
Method: as §1

[5] = system: S. Aureus; assay: as above; format: cell-based; set-up: key to Minimum inhibitory concentration, S. Aureus: I = inactive, i.e. below the activity threshold; details: screened at 100-1.6 μM; for MIC: Staphylococcus aureus
Method: as §1

[6] = Photolysis of compounds 6-9, 6 W low-pressure mercury vapor lamp, conversion by 1H-NMR; format: physicochemical; details: pH 13; acetonitrile/NaOH solution 30/70; 254 nm low-pressure lamp; 24 hours
Method: Aminol 6-9 (compounds 6-9) were dissolved in acetonitrile and diluted with a sodium hydroxide solution at pH 13 (30/70, V/V). Since all the compounds have strong absorption bands around 250 nm (FIG. 8), a 6 W low-pressure mercury vapor lamp was chosen as the irradiation source, since it emits mainly at 254 nm. All reactions were carried out in a 75 mL gas inlet flask (˜0.7 mM) under a constant stream of nitrogen with a quartz well cold finger for 24 hours.
Following aqueous workup, the reaction mixtures were analysed with ^1H-NMR spectroscopy. […] The photodegradation reaction for compound 6 can be seen in Scheme 21. Additionally, the two doublets at 7.47 and 8.13 ppm (Hc and Ha) have disappeared into a complicated multiplet, and the aliphatic protons around 3 ppm are no longer visible (FIG. 6).

[7] = system: S. Epidermidis; assay: Biofilm inhibition; format: cell-based; details: threshold 30% biofilm formation
Method: as §1

[8] = Solubility observed as precipitation in the MIC test; format: physicochemical; details: higher concentrations in the S. agalactiae MIC test
Method: as §1

[9] = Photolysis of compounds 1-5, 125 W medium pressure mercury vapour lamp, conversion by 1H-NMR; format: physicochemical; details: same conditions
[10] = pH 11, 2 hours irradiation, acetonitrile and water (7:3), medium pressure mercury lamp
[11] = pH 13, 2 hours irradiation, acetonitrile and water (7:3), medium pressure mercury lamp

| conversion after photolysis [1, 10] [%] | conversion after photolysis [1, 11] [%] | E [2] [M⁻¹ cm⁻¹] | λmax [2] [nm] | Structure (SMILES) | MIC [3] [µM] | Minimum inhibitory concentration, S. Epidermidis [4] | also measured |
| --- | --- | --- | --- | --- | --- | --- | --- |
| 68 | 100 | 17263.9 | 382 | O=C(NCC(O)CNc1ccc([N+](=O)[O-])cc1)C(Cl)Cl (centres unmarked) [Compound 5] |  |  | conversion after photolysis ([1]; pH 11, 2 hours irradiation, acetonitrile and water (7:3), medium pressure mercury lamp, listed as compound resembling chloramphenicol): 60%; conversion after photolysis ([1]; pH 13): Full conversion; stability under irradiation at lower pH [1]: remained stable |
|  |  |  |  | O=[N+]([O-])c1ccc(F)c(CC(O)CNc2cc(Cl)cc(Cl)c2F)c1F (centres unmarked) [Compound 9, 1-((3,5-Dichloro-2-fluorophenyl)amino)-3-(2,6-difluoro-3-nitrophenyl)propan-2-ol] | 50 (≈ 19.8 µg/mL) |  | MIC ([4]; Staphylococcus epidermidis): 50 µM (≈ 19.8 µg/mL); MIC [5]: 50 µM (≈ 19.8 µg/mL) |
|  | 40 | 15066.6 | 248 | O=[N+]([O-])c1ccc(CC(O)CNc2ccccc2)cc1 (centres unmarked) [Compound 3] |  |  |  |
|  |  |  |  | O=[N+]([O-])c1ccc(F)c(CC(O)CNc2cc(Cl)c(OC(F)(F)C(F)C(F)(F)F)cc2Cl)c1F (centres unmarked) [Compound 8, 1-((2,5-Dichloro-4-(1,1,2,3,3,3-hexafluoropropoxy)phenyl)amino)-3-(2,6-difluoro-3-nitrophenyl)propan-2-ol] | 6.3 (≈ 3.42 µg/mL) | I | conversion after photolysis [6]: 56%; photodegradation [6]: complete degradation was not achieved; biofilm inhibition for S. epidermidis [7]: 25 µM; Minimum inhibitory concentration, S. Aureus [5]: I; solubility [8]: limited solubility |
| 17 | 17 | 1331.3 | 400 | O=[N+]([O-])c1cccc(NCC(O)Cc2ccccc2)c1 (centres unmarked) [Compound 2] |  |  | stability under irradiation at lower pH [1]: remained stable |
|  |  |  |  | O=[N+]([O-])c1ccc(CC(O)CNc2cc(Cl)c(OC(F)(F)C(F)C(F)(F)F)cc2Cl)cc1 (centres unmarked) [Compound 6] | 6.3 (≈ 3.2 µg/mL) | I | photodegradation [6]: complete conversion; biofilm inhibition for S. epidermidis [7]: 12.5 µM; Minimum inhibitory concentration, S. Aureus [5]: I; solubility [8]: limited solubility |
| 100 | 100 | 1740.0 | 384 | O=[N+]([O-])c1ccc(NCC(O)Cc2ccccc2)cc1 (centres unmarked) [Compound 1] |  |  | conversion in reference experiments in the dark [9]: no conversion; conversion after photolysis ([1]; pH 5, 2 hours irradiation): stops completely; time to full decomposition ([1]; pH 7, extrapolated from conversion after 2 hours): ca. 6 hours |
|  |  |  |  | O=[N+]([O-])c1ccc(F)c(CC(O)CNc2cc(Cl)c(F)c(Cl)c2F)c1F (centres unmarked) [Compound 7, 1-((3,5-Dichloro-2,4-difluorophenyl)amino)-3-(2,6-difluoro-3-nitrophenyl)propan-2-ol] |  | I | Minimum inhibitory concentration, S. Agalactiae [3]: I; MIC [5]: 50 µM (≈ 20.7 µg/mL) |
|  | 56 | 17018.7 | 248 | O=[N+]([O-])c1cccc(CC(O)CNc2ccccc2)c1 (centres unmarked) [Compound 4] |  |  |  |
